Results from ChEMBL document CHEMBL1131315, “Synthesis and anticonvulsant activity of 2(3H)-benzoxazolone and 2(3H)-benzothiazolone derivatives” (J Med Chem, 1998).
pKi: −log10 of the molar value. Calls of active or inactive are those of the source. The rule behind the calls is not given here.

Key:
Mus musculus [1] = experiment: Time of peak effect in mice following i.p. administration.; assay type: functional
Mus musculus [2] = experiment: The compound was tested for anticonvulsant activity in Maximal electroshock seizure test for 30 min in mice(ip); active at 30 mg/kg; assay type: functional, organism-based; design: dose 30 mg/kg
Mus musculus [3] = experiment: The compound was tested for anticonvulsant activity in Maximal electroshock seizure test (MES) for 4 hr in mice(ip); no activity or toxicity at 300 mg/kg; assay type: functional, organism-based; design: dose 300 mg/kg
Mus musculus [4] = experiment: The compound was tested to inhibit 50% of induced maximal electroshock seizure in mice on ip administration.; assay type: functional
Mus musculus [5] = experiment: Inhibition of s.c. pentylenetetrazole induced seizure in mice following i.p. administration.; assay type: functional
Mus musculus [6] = experiment: Anticonvulsant activity in subcutaneous pentylenetetrazole seizure test for 30 min in mice; No activity/toxicity at 300 mg/kg.; assay type: functional, organism-based; design: dose 300 mg/kg
Mus musculus [7] = experiment: The anticonvulsant activity in subcutaneous pentylenetetrazole seizure test (sc Met) for 4 hr in mice; no activity or no toxicity at 300 mg/kg; assay type: functional, organism-based; design: dose 300 mg/kg
Sigma 2 receptor = experiment: Affinity on sigma 2 receptor using [3H]- DTG as radioligand
[8] = target: Sigma non-opioid intracellular receptor 1 (Homo sapiens) (UniProt Q99720); experiment: Ratio between the Ki(nM)values of sigma-2 and sigma-1; assay type: functional
[9] = The compound was tested for neurologic toxicity (rotarod) test for 30 min in mice; active at 100 mg/kg; assay type: organism-based; design: dose 100 mg/kg; details: mouse, in vivo, 0.5 h
[10] = (§1) The compound was determined for the dose (mg/kg) by rotarod test at the time of peak neurotoxic effect in mice on ip administration.; assay type: ADME, organism-based; details: mouse, in vivo
[11] = The compound was tested for time of peak effect (TPE) in hours for its toxicity in mice on ip administration.; assay type: organism-based; details: mouse, in vivo
[12] = The compound was tested for neurologic toxicity (rotarod) test for 4 hours in mice; no activity or no toxicity at 300 mg/kg; assay type: organism-based; design: dose 300 mg/kg; details: mouse, in vivo
Mus musculus [13] = experiment: The compound was tested for anticonvulsant activity in Maximal electroshock seizure test (MES) for 4 hr in mice(ip); active at 300 mg/kg; assay type: functional, organism-based; design: dose 300 mg/kg
Mus musculus [14] = experiment: Anticonvulsant activity in Maximal electroshock seizure test at 100 mg/kg i.p. in mice.; assay type: functional, organism-based; design: dose 100 mg/kg
Mus musculus [15] = experiment: The compound was tested for anticonvulsant activity in subcutaneous pentylenetetrazole seizure test (sc Met) for 30 min in mice; active at 100 mg/kg; assay type: functional, organism-based; design: dose 100 mg/kg
[16] = The compound was tested for neurologic toxicity (rotarod) test for 4 hours in mice; active at 300 mg/kg; assay type: organism-based; design: dose 300 mg/kg; details: mouse, in vivo
Mus musculus [17] = experiment: The compound was tested to inhibit 50% of induced maximal electroshock seizure in mice on ip administration; assay type: functional
Mus musculus [18] = experiment: The compound was tested for anticonvulsant activity in Maximal electroshock seizure test (MES) for 4 hr in mice(ip); active at 100 mg/kg; assay type: functional, organism-based; design: dose 100 mg/kg
Mus musculus [19] = experiment: The compound was tested for anticonvulsant activity in subcutaneous pentylenetetrazole seizure test (sc Met) for 30 min in mice; active at 300 mg/kg; assay type: functional, organism-based; design: dose 300 mg/kg
Mus musculus [20] = experiment: The compound was tested for anticonvulsant activity in subcutaneous pentylenetetrazole seizure test (sc Met) for 4 hr in mice; active at 300 mg/kg; assay type: functional, organism-based; design: dose 300 mg/kg
[21] = The compound was tested for neurologic toxicity (rotarod) test for 30 min in mice; no activity or no toxicity at 300 mg/kg; assay type: organism-based; design: dose 300 mg/kg; details: mouse, in vivo, 0.5 h
Mus musculus [22] = experiment: as §1; assay type: functional
[23] = The compound was tested for neurologic toxicity (rotarod) test for 30 min in mice; active at 300 mg/kg; assay type: organism-based; design: dose 300 mg/kg; details: mouse, in vivo, 0.5 h

Chain of Sigma non-opioid intracellular receptor 1 (Homo sapiens) (Q99720 whole entry): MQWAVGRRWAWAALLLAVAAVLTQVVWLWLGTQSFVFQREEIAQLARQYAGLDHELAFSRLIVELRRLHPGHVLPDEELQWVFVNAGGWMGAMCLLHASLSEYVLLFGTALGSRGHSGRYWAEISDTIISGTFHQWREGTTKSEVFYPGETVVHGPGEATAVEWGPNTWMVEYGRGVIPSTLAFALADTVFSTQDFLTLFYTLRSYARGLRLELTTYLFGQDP

Row | Structure (SMILES) | Activity (Mus musculus [1]) [h] | MES (Mus musculus [3]) | ED50 (Mus musculus [5]) [mg/kg] | scMet (Mus musculus [6]) | scMet (Mus musculus [7]) | Rotarod toxicity [9] | Toxicity [11] [h] | Rotarod toxicity [12] | MES (Mus musculus [13]) | MES (Mus musculus [14]) | also measured
1 | CCCCC(=O)c1ccc2c(c1)sc(=O)n2CCN(C)C | 0.25 | active at 30 mg/kg | > 70 | No activity or no toxicity at 300 mg/kg | No activity or no toxicity at 300 mg/kg | active at 100 mg/kg | 0.25 | active at 100 mg/kg |  |  | MES (Mus musculus [2]): active at 30 mg/kg; ED50 (Mus musculus [4]): 27.3 mg/kg; pKi (Sigma 2 receptor): 5.34; Ratio [8]: 7; TD50 [10]: 61.5 mg/kg
2 | CCCc1ccc2nc(O)oc2c1 |  |  |  |  | active at 100 mg/kg | active at 100 mg/kg |  |  | active at 300 mg/kg | active at 300 mg/kg | scMet (Mus musculus [15]): active at 100 mg/kg; Rotarod toxicity [16]: active at 100 mg/kg
3 | CCCCCc1ccc2nc(O)oc2c1 | 0.5 |  | 80.7 |  | active at 100 mg/kg | active at 100 mg/kg | 1 | active at 100 mg/kg | active at 300 mg/kg | active at 300 mg/kg | ED50 (Mus musculus [17]): 70.8 mg/kg; scMet (Mus musculus [15]): active at 100 mg/kg; TD50 [10]: 168 mg/kg
4 | CCCc1ccc2nc(O)sc2c1 |  |  |  |  |  | active at 100 mg/kg |  |  |  | active at 100 mg/kg | MES (Mus musculus [18]): active at 100 mg/kg; scMet (Mus musculus [19]): active at 300 mg/kg; scMet (Mus musculus [20]): active at 300 mg/kg; Rotarod toxicity [16]: active at 100 mg/kg
5 | Cn1c(=O)oc2cc(C(=O)c3ccccc3)ccc21 |  | No activity or toxicity at 300 mg/kg |  |  | active at 300 mg/kg |  |  | No activity or no toxicity at 300 mg/kg |  | No activity or toxicity at 300 mg/kg | scMet (Mus musculus [19]): active at 300 mg/kg; Rotarod toxicity [21]: No activity or no toxicity at 300 mg/kg
6 | CCC(=O)c1ccc2nc(O)sc2c1 |  | No activity or toxicity at 300 mg/kg |  | No activity or no toxicity at 300 mg/kg | No activity or no toxicity at 300 mg/kg |  |  | No activity or no toxicity at 300 mg/kg |  | No activity or toxicity at 300 mg/kg | Rotarod toxicity [21]: No activity or no toxicity at 300 mg/kg
7 | CCCCC(=O)c1ccc2c(c1)sc(=O)n2CCN1CCOCC1 |  |  |  | No activity or no toxicity at 300 mg/kg | No activity or no toxicity at 300 mg/kg | active at 100 mg/kg |  |  | active at 300 mg/kg | active at 300 mg/kg | Rotarod toxicity [16]: active at 100 mg/kg
8 | CCC(=O)c1ccc2c(c1)oc(=O)n2CCN1CCCCC1 | 0.25 | No activity or toxicity at 300 mg/kg | > 100 | No activity or no toxicity at 300 mg/kg | No activity or no toxicity at 300 mg/kg | active at 100 mg/kg | 0.25 | active at 100 mg/kg |  | No activity or toxicity at 300 mg/kg | ED50 (Mus musculus [17]): 61 mg/kg; pKi (Sigma 2 receptor): 6.05; Ratio [8]: 13; TD50 [10]: 72.9 mg/kg
9 | O=C(c1ccccc1)c1ccc2nc(O)oc2c1 |  | No activity or toxicity at 300 mg/kg |  | No activity or no toxicity at 300 mg/kg | No activity or no toxicity at 300 mg/kg |  |  | No activity or no toxicity at 300 mg/kg |  | No activity or toxicity at 300 mg/kg | Rotarod toxicity [21]: No activity or no toxicity at 300 mg/kg
10 | CCC(=O)c1ccc2c(c1)oc(=O)n2C |  | No activity or toxicity at 300 mg/kg |  |  | active at 100 mg/kg | active at 100 mg/kg |  | active at 100 mg/kg |  | No activity or toxicity at 300 mg/kg | scMet (Mus musculus [15]): active at 100 mg/kg
11 | CCC(=O)c1ccc2c(c1)sc(=O)n2CCN1CCCC1 | 0.25 | active at 30 mg/kg | > 80 | No activity or no toxicity at 300 mg/kg | No activity or no toxicity at 300 mg/kg | active at 100 mg/kg | 0.25 | active at 100 mg/kg |  |  | MES (Mus musculus [2]): active at 30 mg/kg; ED50 (Mus musculus [4]): 13.9 mg/kg; pKi (Sigma 2 receptor): 6.04; Ratio [8]: 1.6; TD50 [10]: 48.4 mg/kg
12 | CCC(=O)c1ccc2c(c1)sc(=O)n2CCN(C)C | 0.25 |  | > 130 | No activity or no toxicity at 300 mg/kg | No activity or no toxicity at 300 mg/kg |  | 0.25 |  | active at 30 mg/kg |  | MES (Mus musculus [2]): active at 30 mg/kg; ED50 (Mus musculus [4]): 21.8 mg/kg; TD50 (Mus musculus [22]): 84.5 mg/kg; Rotarod toxicity [23]: active at 300 mg/kg; Rotarod toxicity [16]: active at 300 mg/kg
13 | CCCCC(=O)c1ccc2c(c1)oc(=O)n2CCN1CCCCC1 |  | No activity or toxicity at 300 mg/kg |  | No activity or no toxicity at 300 mg/kg | No activity or no toxicity at 300 mg/kg | active at 100 mg/kg |  | active at 100 mg/kg |  | No activity or toxicity at 300 mg/kg | 
14 | O=c1[nH]c2ccccc2o1 [BENZOXAZOLINONE] |  | No activity or toxicity at 300 mg/kg |  | No activity or no toxicity at 300 mg/kg | No activity or no toxicity at 300 mg/kg |  |  | active at 300 mg/kg |  | No activity or toxicity at 300 mg/kg | Rotarod toxicity [23]: active at 300 mg/kg
15 | O=c1oc2cc(Cc3ccccc3)ccc2n1CCN1CCOCC1 | 1 |  | > 225 | No activity or no toxicity at 300 mg/kg | No activity or no toxicity at 300 mg/kg |  | 1 | active at 300 mg/kg |  | active at 100 mg/kg | MES (Mus musculus [18]): active at 100 mg/kg; ED50 (Mus musculus [17]): 87 mg/kg; TD50 (Mus musculus [22]): 194 mg/kg; pKi (Sigma 2 receptor): 6.29; Ratio [8]: 7; Rotarod toxicity [23]: active at 300 mg/kg
16 | CN(C)CCn1c(=O)oc2cc(C(=O)c3ccccc3)ccc21 | 0.25 |  | > 120 | No activity or no toxicity at 300 mg/kg | No activity or no toxicity at 300 mg/kg |  | 0.25 |  | active at 300 mg/kg | active at 300 mg/kg | ED50 (Mus musculus [4]): 84.4 mg/kg; pKi (Sigma 2 receptor): < 5.00; Ratio [8]: > 27; Rotarod toxicity [21]: active at 300 mg/kg; TD50 [10]: 99 mg/kg; Rotarod toxicity [16]: active at 300 mg/kg
17 | CCCCC(=O)c1ccc2c(c1)oc(=O)n2CCCN1CCCCC1 |  |  |  | No activity or no toxicity at 300 mg/kg | No activity or no toxicity at 300 mg/kg | active at 100 mg/kg |  | active at 100 mg/kg | active at 300 mg/kg | active at 300 mg/kg | 
